Data as given in patent publication US9981959B2, “Thiazolyl and oxazolyl urea, thiourea, guanidine and cyanoguanidine compounds as TrkA kinase inhibitors” (Array BioPharma Inc., priority 2012, dated 2018).

Molecular target: TrkA (Homo sapiens, UniProt P04629)
Experiment: TrkA LanthaScreen Eu Kinase Binding Assay
Set-up: 6HIS tagged cytoplasmic domain from Invitrogen, Cat. No. PV3144; purchased Invitrogen PV3144
Details: averaged IC50; TR-FRET binding, 60 min, 22° C.; read-out: TrkA enzyme IC50
Method: TrkA binding activity was determined in a TrkA LanthaScreen™ Eu Kinase Binding Assay. 5 nM His-tagged recombinant human TrkA (6HIS tagged cytoplasmic domain from Invitrogen, Cat. No. PV3144) was incubated with 4 nM Alexa-Fluor® Tracer 236 (Invitrogen Cat. No. PV5592), 2 nM biotinylated anti-His (Invitrogen Cat. No. PV6090), and 2 nM europium-labeled Streptavidin (Invitrogen Cat. No. PV5899), in buffer (25 mM MOPS, pH 7.5, 5 mM MgCl2, 0.005% Triton X-100). Three fold serial dilutions of compounds of the invention in DMSO were added to a final percentage of 2% DMSO. After 60-minute incubation at 22° C., the reaction was measured using the EnVision mutlimode plate reader (PerkinElmer) via TR-FRET dual wavelength detection at […]. The percent of control was calculated using a ratiometric emission factor. The IC50 values were determined by fitting a four parameter model to the percent of control data.
Table A provides averaged IC50 values for compounds of the invention when tested in the assay of Example A, where A represents an averaged IC50 value <100 nM; and B represents an averaged IC50 value from 100 to 1,000 nM.

TrkA, sequence (P04629 440-796 limits assumed): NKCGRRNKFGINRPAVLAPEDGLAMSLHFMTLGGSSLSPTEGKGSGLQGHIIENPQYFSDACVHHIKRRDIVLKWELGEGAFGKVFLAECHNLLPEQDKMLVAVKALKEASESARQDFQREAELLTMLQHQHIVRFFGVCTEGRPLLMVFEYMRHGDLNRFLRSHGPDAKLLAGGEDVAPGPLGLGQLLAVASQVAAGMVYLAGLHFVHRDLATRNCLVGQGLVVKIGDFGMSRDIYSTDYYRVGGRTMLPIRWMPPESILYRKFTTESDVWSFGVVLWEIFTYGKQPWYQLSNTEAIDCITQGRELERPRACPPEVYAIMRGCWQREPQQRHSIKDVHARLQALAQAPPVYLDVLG

SMILES	IC50
Cc1nc(-c2ccccc2)c(NC(=O)Nc2c(C)c(-c3cnn(C)c3)nn2-c2ccccc2)s1 [Example 1, 1-(1′,4-dimethyl-1-phenyl-1H,1′H-[3,4′-bipyrazol]-5-yl)-3-(2-methyl-4-phenylthiazol-5-yl)urea]	< 100 nM
Cc1nc(-c2ccccc2)c(NC(=O)Nc2c(C)c(-c3cnn(C)c3)nn2-c2ccccc2)o1 [Example 3, 1-(1′,4-dimethyl-1-phenyl-1H, 1′H-[3,4′-bipyrazol]-5-yl)-3-(2-methyl-4-phenyloxazol-5-yl)urea]	100 to 1000 nM
Cc1c(C(N)=O)nn(-c2ccccc2)c1NC(=O)Nc1sc(C(F)(F)F)nc1-c1ccccc1 [Example 4, 4-methyl-1-phenyl-5-(3-(4-phenyl-2-(trifluoromethyl)thiazol-5-yl)ureido)-1H-pyrazole-3-carboxamide]	100 to 1000 nM
Cc1c(OCCO)nn(-c2ccccc2)c1NC(=O)Nc1sc(C(F)(F)F)nc1-c1ccccc1 [Example 5, 1-(3-(2-hydroxyethoxy)-4-methyl-1-phenyl-1H-pyrazol-5-yl)-3-(4-phenyl-2-(trifluoromethyl)thiazol-5-yl)urea]	< 100 nM
